# Article PMC7616174, “Development of Novel 4-Arylpyridin-2-one and 6-Arylpyrimidin-4-one Positive Allosteric Modulators of the M1 Muscarinic Acetylcholine Receptor” (ChemMedChem, 2020)
# Key:
# [1] = biological target: T1, M1 mAChR (Homo sapiens, UniProt P11229); test: β-arrestin 2 recruitment assay (BRET); type: cell-based; conditions: for αβ (functional cooperativity with ACh) / τB (intrinsic efficacy of the modulator): antilog, in parentheses; for log τB (logarithm of intrinsic efficacy of the modulator) / log αβ (logarithm of functional cooperativity between ACh and modulator): operational model; for log αβ (logarithm of functional cooperativity between ACh and modulator): pKB constrained to binding value
# T1 construct: expressed in transfected cells; host or cells: parental FlpIn CHO cells (transient, PEI)
# T1 sequence (P11229 1-460): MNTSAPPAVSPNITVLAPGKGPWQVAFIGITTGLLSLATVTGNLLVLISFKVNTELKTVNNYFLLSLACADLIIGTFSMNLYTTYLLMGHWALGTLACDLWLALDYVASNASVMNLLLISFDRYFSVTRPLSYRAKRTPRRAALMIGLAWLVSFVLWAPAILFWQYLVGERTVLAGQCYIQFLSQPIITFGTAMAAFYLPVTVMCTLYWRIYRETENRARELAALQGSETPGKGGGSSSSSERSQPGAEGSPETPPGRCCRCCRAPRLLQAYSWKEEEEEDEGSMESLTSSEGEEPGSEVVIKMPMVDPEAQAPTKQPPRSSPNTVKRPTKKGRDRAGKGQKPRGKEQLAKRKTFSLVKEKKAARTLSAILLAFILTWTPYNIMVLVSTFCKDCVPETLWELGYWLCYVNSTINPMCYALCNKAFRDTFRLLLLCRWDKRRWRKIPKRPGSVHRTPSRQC
# Source text: The compounds were then fully characterised in two functional assays (Figure 2C and D); the Gq-coupled IP1 accumulation assay (Figure S2), which was used for the initial screening of the compounds, and a β-arrestin 2 recruitment assay (Figure S3). The operational efficacy (τB) values for the modulators and their functional cooperativity estimates with ACh (logαβACh) at both signalling pathways were estimated by applying an operational model of allosterism and agonism to the data [Eq. (3)],[16] and are listed in Table 5.
# Parental FlpIn CHO cells were plated at 30000 cells/well of 96-well white Culture plates (Perkin Elmer Life Sciences) and transiently transfected with 10 ng/well of M1 Renilla luciferase (Rluc)-8 and 40 ng/well of YFP-β-arrestin 2 using linear polyethyleneimine (PEI/DNA ratio 6:1) diluted in 150 mM NaCl. DNA:PEI complexes were formed by 15 min incubation at room temperature then added to the cells and incubated at 37°C for 24 h prior to use. Cells were then washed and equilibrated in Hanks’ balanced salt solution for 1 h at 37°C. Coelenterazine h at a final concentration of 5 μM was added to each well, followed by addition of increasing concentrations of ACh in the absence or presence of increasing concentrations of each modulator. Lumines-cence and fluorescence signals were measured 5 min after agonist stimulation using the LUMIstar Omega plate reader (BMG LabTech, Offenburg, Germany). […] Data were then normalized to the maximum response to ACh.
# Functional interaction studies between ACh and allosteric modulators in IP1 and β-arrestin 2 recruitment assays were analysed according to a three-parameter logistic equation or the following operational model of allosterism and agonism [Eq. (3)].[16] E=Basal+(Em−Basal)([A](KB+αβ[B])+τB[B]EC50)^n/EC50n(KB+[B])^n+([A](KB+αβ[B])+τB[B]EC50)^n where Em is the maximal possible system response, and Basal is the response in the absence of agonist. [A] and [B] are concentrations of orthosteric and allosteric ligands, respectively. KB is the equilibrium dissociation constant of allosteric ligand, and EC50 is the concentration of orthosteric agonist required to achieve half maximal response. α and β represent the magnitude of the allosteric effects on orthosteric ligand affinity and efficacy, respectively; τB is the efficacy of allosteric ligand, and n is the slope factor of the transducer function that links occupancy to response.
# [2] = biological target: T1, M1 mAChR; parameters: method as in PMID 24051397; conditions: ref 10a; cited from earlier work
# [3] = in vivo; conditions: male, C57Bl/6 J, mouse, 10 mg/kg
# Experimental: (§1) The study was performed using 10–12 weeks old male C57Bl/6 J naïve mice in accordance with the Australian Code of Practice for the Care and Use of Animals for Scientific Purposes, with procedures approved by the Animal Ethics Committee of the Monash Institute of Pharmaceutical Sciences.
# [4] = In vivo brain and plasma exposure in mice after IP administration; conditions: for cbrain, total concentration, 90 min post-dose / cplasma, total concentration, 90 min post-dose / cplasma, total concentration, 20 or 45 min post-dose: range n=3; for cbrain, total concentration, 20 or 45 min post-dose / cplasma, total concentration, 20 or 45 min post-dose: 20 min (10 mg/kg) for 2, 7f, 13c, 45 min (20 mg/kg) for BQCA; for cbrain, total concentration, 20 or 45 min post-dose: range in individual mice n=3
# Experimental: as §1
# [5] = 10 mg/kg (BQCA 20 mg/kg), range n=3, in parentheses
# [6] = 20 min (10 mg/kg) for 2, 45 min (20 mg/kg) for BQCA, range n=3, in parentheses
αβ (functional cooperativity with ACh) [1],τB (intrinsic efficacy of the modulator) [1],log τB (logarithm of intrinsic efficacy of the modulator) [1],log αβ (logarithm of functional cooperativity between ACh and modulator) [1],"Kp ([3]; brain/plasma, ip)","Kp uu ([3]; brain/plasma, ip)","cbrain, total concentration, 90 min post-dose ([4]; 10 mg/kg (BQCA 20 mg/kg))","cplasma, total concentration, 90 min post-dose ([4]; 10 mg/kg (BQCA 20 mg/kg))","cbrain, unbound concentration, 90 min post-dose [4, 5]","cplasma, unbound concentration, 90 min post-dose [4, 5]","cbrain, total concentration, 20 or 45 min post-dose [4]","cplasma, total concentration, 20 or 45 min post-dose [4]","cbrain, unbound concentration, 20 or 45 min post-dose [4, 6]","cplasma, unbound concentration, 20 or 45 min post-dose [4, 6]","concentration at 90 min ([3]; brain, intraperitoneal)",SMILES,increase in binding cooperativity with ACh (αACh) compared to MIPS1650 (1) [2],increase in intrinsic efficacy (τB) compared to MIPS1650 (1) [2]
63,2,0.37±0.11,1.80±0.35,< 0.1,< 0.1,0.0 to 0.1 µM,0.7 to 1.1 µM,0.0 µM,0.0 µM,0.7 to 1.2 µM,15.0 to 16.5 µM,0.0 µM,0.1 µM,,"Cn1cc(-c2ccc(COc3ccccc3-c3cc(=O)n(C4CCCCC4O)cn3)cc2)cn1 (centres unmarked) [Compound 2, 3-(2-Hydroxycyclohexyl)-6-(2-((4-(1-methyl-1H-pyrazol-4-yl)benzyl)oxy)phenyl)pyrimidin-4(3H)-one]",fourfold increase,11 fold
55,1,–0.01±0.06,1.74±0.11,,,n.q.,4.9–5.4 (n.a.) μM,,,n.q.,25.3–46.5 (n.a.) μM,,,,"CN(C)C(=O)Cn1ccc(-c2ccccc2OCc2ccc(-c3cnn(C)c3)cc2)cc1=O [Compound 13c, N,N-Dimethyl-2-(4-(2-((4-(1-methyl-1H-pyrazol-4-yl)benzyl)oxy)phenyl)-2-oxopyridin-1(2H)-yl)acetamide]",,
81,2,0.23±0.08,1.91±0.10,,,,11.1–13.7 (n.a.) μM,,,0.3–0.4 (n.a.) μM,31.8–40.7 (n.a.) μM,,,100 nM,"Cn1cc(-c2ccc(COc3ncccc3-c3ccn(C4CCCCC4O)c(=O)c3)cc2)cn1 (centres unmarked) [Compound 7f, 1’-(2-Hydroxycyclohexyl)-2-((4-(1-methyl-1H-pyrazol-4-yl)benzyl)oxy)-[3,4’-bipyridin]-2’(1’H)-one]",,
